Measured values published in patent US9255101B2 (BIOPROJECT, priority 2012, dated 2016).
Counter-ions that a name gives are not always drawn.

Target: human H4 receptor (Homo sapiens, UniProt Q9H3N8)
Assay: biochemical
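Also: radioligand displacement of a [3H]-labelled ligand from membranes of CHO cells stably expressing human H4 receptor, bound radioactivity counted on filters by liquid scintillation.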

human H4 receptor, sequence (Q9H3N8 whole entry): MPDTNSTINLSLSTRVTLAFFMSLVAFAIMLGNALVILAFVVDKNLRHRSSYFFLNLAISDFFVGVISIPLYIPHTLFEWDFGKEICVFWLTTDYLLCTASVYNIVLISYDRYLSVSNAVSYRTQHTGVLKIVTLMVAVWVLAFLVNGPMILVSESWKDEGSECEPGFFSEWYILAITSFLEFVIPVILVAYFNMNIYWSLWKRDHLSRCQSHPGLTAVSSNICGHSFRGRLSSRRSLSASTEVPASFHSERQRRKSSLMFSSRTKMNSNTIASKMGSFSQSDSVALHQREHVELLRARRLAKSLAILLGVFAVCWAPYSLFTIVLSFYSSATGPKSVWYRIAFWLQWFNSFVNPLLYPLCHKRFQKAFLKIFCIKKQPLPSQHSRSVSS

`CN1CCC(OC2c3ccccc3CCn3cc(-c4ccc(C(=O)N5CCC(=O)CC5)cc4)nc32)CC1` (stereo not drawn) [Example 215, 1-{4-[4-(1-methylpiperidin-4-yloxy)-9,10-dihydro-4H-3,10a-diaza-benzo[f]azulen-2-yl]-benzoyl}-piperidin-4-one] and `Cc1c(-c2ccc(C(=O)N3CCC(=O)CC3)cc2)nc2n1CCc1ccccc1C2OC1CCN(C)CC1` (stereo not drawn) [Example 218, 1-{4-[1-methyl-4-(1-methylpiperidin-4-yloxy)-9,10-dihydro-4H-3,10a-diaza-benzo[f]azulen-2-yl]-benzoyl}-piperidin-4-one] cannot be ordered by Ki: < 0.3 µM for the first, < 0.3 µM for the second.

`Ic1nc2n(c1I)CCc1ccccc1C2OCCN1CCCCC1` (stereo not drawn) [Example 265, 1,2-diiodo-4-(2-piperidin-1-yl-ethoxy)-9,10-dihydro-4H-3,10a-diaza-benzo[f]azulene] and `CN(C)CCOC1c2ccccc2CCn2c1nc(I)c2I` (stereo not drawn) [Example 264, [2-(1,2-diiodo-9,10-dihydro-4H-3,10a-diaza-benzo[f]azulen-4-yloxy)-ethyl]-dimethyl-amine] cannot be ordered by Ki: < 1 µM for the first, < 1 µM for the second.

`CN1CCC(OC2c3ccccc3CCn3cc(-c4ccc(CCO)cc4)nc32)CC1` (stereo not drawn) [Example 192, 2-{4-[4-(1-methylpiperidin-4-yloxy)-9,10-dihydro-4H-3,10a-diaza-benzo[f]azulen-2-yl]-phenyl}-ethanol] and `CN1CCC(OC2c3ccccc3CCn3cc(-c4ccc(CO)cc4)nc32)CC1` (stereo not drawn) [Example 18, {4-[4-(1-methylpiperidin-4-yloxy)-9,10-dihydro-4H-3,10a-diaza-benzo[f]azulen-2-yl]-phenyl}-methanol] cannot be ordered by Ki: < 0.3 µM for the first, < 1 µM for the second.

`CN1CCC(OC2c3ccccc3CCn3c2nc(-c2ccccc2Cl)c3C#N)CC1` (stereo not drawn) [Example 272, 2-(2-chlorophenyl)-4-(1-methyl-piperidin-4-yloxy)-9,10-dihydro-4H-3,10a-diaza-benzo[f]azulene-1-carbonitrile oxalate] and `CN1CCC(OC2c3ccccc3CCn3c2nc(-c2ccccc2)c3C#N)CC1` (stereo not drawn) [Example 235, 4-(1-methylpiperidin-4-yloxy)-2-phenyl-9,10-dihydro-4H-3,10a-diaza-benzo[f]azulene-1-carbonitrile] cannot be ordered by Ki: < 0.03 µM for the first, < 0.03 µM for the second.

`CN1CCC(OC2c3ccccc3CCn3cc(-c4ccc(CSCCNC(=O)OC(C)(C)C)cc4)nc32)CC1` (stereo not drawn) [Example 199, (2-{4-[4-(1-methylpiperidin-4-yloxy)-9,10-dihydro-4H-3,10a-diaza-benzo[f]azulen-2-yl]benzylsulfanyl}-ethyl)-carbamic acid tert-butyl ester] and `CN1CCC(OC2c3ccccc3CCn3cc(-c4ccc(CCNC(=O)OC(C)(C)C)cc4)nc32)CC1` (stereo not drawn) [Example 196] cannot be ordered by Ki: < 0.3 µM for the first, < 0.3 µM for the second.

`CN1CCC(OC2c3ccccc3CCn3cc(SCCNC(=O)OC(C)(C)C)nc32)CC1` (stereo not drawn) [Example 84, {2-[4-(1-methylpiperidin-4-yloxy)-9,10-dihydro-4H-3,10a-diaza-benzo[f]azulen-2-ylsulfanyl]-ethyl}-carbamic acid tert-butyl ester oxalate] and `CN1CCC(OC2c3ccccc3CCn3cc(-c4ccc(C(=O)NCCO)cc4)nc32)CC1` (stereo not drawn) [Example 212, N-(2-hydroxyethyl)-4-[4-(1-methylpiperidin-4-yloxy)-9,10-dihydro-4H-3,10a-diaza-benzo[f]azulen-2-yl]benzamide] cannot be ordered by Ki: < 0.3 µM for the first, < 1 µM for the second.

`Cc1c(-c2ccc(NC(=O)NC34CC5CC(CC(C5)C3)C4)cc2)nc2n1CCc1ccccc1C2OC1CCN(C)CC1` (stereo not drawn) [Example 213, 1-adamantan-1-yl-3-{4-[1-methyl-4-(1-methylpiperidin-4-yloxy)-9,10-dihydro-4H-3,10a-diaza-benzo[f]azulen-2-yl]-phenyl}-urea] and `Cc1c(-c2ccc(NC(=O)OC3CCCC3)cc2)nc2n1CCc1ccccc1C2OC1CCN(C)CC1` (stereo not drawn) [Example 172, {4-[1-methyl-4-(1-methylpiperidin-4-yloxy)-9,10-dihydro-4H-3,10a-diaza-benzo[f]azulen-2-yl]-phenyl}-carbamic acid cyclopentyl ester] cannot be ordered by Ki: < 0.03 µM for the first, < 0.03 µM for the second.

`CN1CCC(OC2c3ccccc3CCn3cc(C4=CCSCC4)nc32)CC1` (stereo not drawn) [Example 57, 2-(3,6-dihydro-2H-thiopyran-4-yl)-4-(1-methylpiperidin-4-yloxy)-9,10-dihydro-4H-3,10a-diaza-benzo[f]azulene] and `CN1CCC(OC2c3ccccc3CCn3cc(-c4ccco4)nc32)CC1` (stereo not drawn) [Example 24, 2-furan-2-yl-4-(1-methylpiperidin-4-yloxy)-9,10-dihydro-4H-3,10a-diaza-benzo[f]azulene] cannot be ordered by Ki: < 0.3 µM for the first, < 0.3 µM for the second.

`CN1CCC(OC2c3ccccc3CCn3cc(-c4cccnc4)nc32)CC1` (stereo not drawn) [Example 45, 4-(1-methylpiperidin-4-yloxy)-2-pyridin-3-yl-9,10-dihydro-4H-3,10a-diaza-benzo[f]azulene oxalate] and `CN1CCC(OC2c3ccccc3CCn3cc(-c4ccccn4)nc32)CC1` (stereo not drawn) [Example 23, 4-(1-methylpiperidin-4-yloxy)-2-pyridin-2-yl-9,10-dihydro-4H-3,10a-diaza-benzo[f]azulene] cannot be ordered by Ki: < 1 µM for the first, < 1 µM for the second.

`Cc1c(-c2ccc(C3=CCCC3)cc2)nc2n1CCc1ccccc1C2OC1CCN(C)CC1` (stereo not drawn) [Example 169, 2-(4-cyclopent-1-enylphenyl)-1-methyl-4-(1-methylpiperidin-4-yloxy)-9,10-dihydro-4H-3,10a-diaza-benzo[f]azulene] and `Cc1c(-c2ccc(SC(C)(C)C)cc2)nc2n1CCc1ccccc1C2OC1CCN(C)CC1` (stereo not drawn) [Example 166, 2-(4-tert-butylsulfanylphenyl)-1-methyl-4-(1-methylpiperidin-4-yloxy)-9,10-dihydro-4H-3,10a-diaza-benzo[f]azulene oxalate] cannot be ordered by Ki: < 0.03 µM for the first, < 0.03 µM for the second.

`CN1CCC(OC2c3ccccc3CCn3cc(-c4ccccc4CO)nc32)CC1` (stereo not drawn) [Example 179, {2-[4-(1-methylpiperidin-4-yloxy)-9,10-dihydro-4H-3,10a-diaza-benzo[f]azulen-2-yl]-phenyl}-methanol oxalate] and `COCc1ccc(-c2cn3c(n2)C(OC2CCN(C)CC2)c2ccccc2CC3)cc1` (stereo not drawn) [Example 19, 2-(4-methoxymethylphenyl)-4-(1-methylpiperidin-4-yloxy)-9,10-dihydro-4H-3,10a-diaza-benzo[f]azulene oxalate] cannot be ordered by Ki: < 0.3 µM for the first, < 0.3 µM for the second.

`CC(C)SCc1ccc(-c2cn3c(n2)C(OC2CCN(C)CC2)c2ccccc2CC3)cc1` (stereo not drawn) [Example 186, 2-(4-isopropylsulfanylmethylphenyl)-4-(1-methylpiperidin-4-yloxy)-9,10-dihydro-4H-3,10a-diaza-benzo[f]azulene] and `CN1CCC(OC2c3ccccc3CCn3cc(-c4ccc(S(C)(=O)=O)cc4)nc32)CC1` (stereo not drawn) [Example 17, 2-(4-methanesulfonylphenyl)-4-(1-methylpiperidin-4-yloxy)-9,10-dihydro-4H-3,10a-diaza-benzo[f]azulene] cannot be ordered by Ki: < 0.3 µM for the first, < 0.3 µM for the second.

`CN1CCC(OC2c3ccccc3CCn3cc(-c4ccc(CN5CCCCC5=O)cc4)nc32)CC1` (stereo not drawn) [Example 185, 1-{4-[4-(1-methylpiperidin-4-yloxy)-9,10-dihydro-4H-3,10a-diaza-benzo[f]azulen-2-yl]benzyl}-piperidin-2-one] and `C=CCOc1ccc(-c2cn3c(n2)C(OC2CCN(C)CC2)c2ccccc2CC3)cc1` (stereo not drawn) [Example 183, 2-(4-allyloxyphenyl)-4-(1-methylpiperidin-4-yloxy)-9,10-dihydro-4H-3,10a-diaza-benzo[f]azulene] cannot be ordered by Ki: < 0.3 µM for the first, < 0.03 µM for the second.

`Cc1c(-c2ccc(NC(=O)OC(C)(C)C(Cl)(Cl)Cl)cc2)nc2n1CCc1ccccc1C2OC1CCN(C)CC1` (stereo not drawn) [Example 175, {4-[1-methyl-4-(1-methylpiperidin-4-yloxy)-9,10-dihydro-4H-3,10a-diaza-benzo[f]azulen-2-yl]-phenyl}-carbamic acid 2,2,2-trichloro-1,1-dimethyl-ethyl ester] and `COC(=O)c1c(-c2ccccc2)nc2n1CCc1ccccc1C2OC1CCN(C)CC1` (stereo not drawn) [Example 256, 4-(1-methylpiperidin-4-yloxy)-2-phenyl-9,10-dihydro-4H-3,10a-diaza-benzo[f]azulene-1-carboxylic acid methyl ester] cannot be ordered by Ki: < 0.03 µM for the first, < 0.3 µM for the second.

`CN(C)CCOc1ccc(-c2cn3c(n2)C(OC2CCN(C)CC2)c2ccccc2CC3)cc1` (stereo not drawn) [Example 180, dimethyl-(2-{4-[4-(1-methylpiperidin-4-yloxy)-9,10-dihydro-4H-3,10a-diaza-benzo[f]azulen-2-yl]-phenoxy}-ethyl)-amine] and `CN1CCC(OC2c3cccc(Cl)c3CCn3cc(-c4ccccc4)nc32)CC1` (stereo not drawn) [Example 91, 8-chloro-4-(1-methylpiperidin-4-yloxy)-2-phenyl-9,10-dihydro-4H-3,10a-diaza-benzo[f]azulene] cannot be ordered by Ki: < 0.3 µM for the first, < 0.3 µM for the second.

`CN1CCC(OC2c3cccc(Cl)c3CCn3cc(I)nc32)CC1` (stereo not drawn) [Example 78, 8-chloro-2-iodo-4-(1-methylpiperidin-4-yloxy)-9,10-dihydro-4H-3,10a-diaza-benzo[f]azulene] and `CN1CCC(OC2c3cccc(F)c3CCn3cc(-c4ccccc4)nc32)CC1` (stereo not drawn) [Example 107, 8-fluoro-4-(1-methylpiperidin-4-yloxy)-2-phenyl-9,10-dihydro-4H-3,10a-diaza-benzo[f]azulene] cannot be ordered by Ki: < 0.3 µM for the first, < 1 µM for the second.

`Ic1nc2n(c1I)CCc1ccccc1C2OC1CN2CCC1CC2` (stereo not drawn) [Example 271, 4-(1-azabicyclo[2.2.2]oct-3-yloxy)-1,2-diiodo-9,10-dihydro-4H-3,10a-diaza-benzo[f]azulene oxalate] and `C=C(C)Cc1nc2n(c1C(N)=O)CCc1ccccc1C2OC1CCN(C)CC1` (stereo not drawn) [Example 266, 2-(2-methylallyl)-4-(1-methylpiperidin-4-yloxy)-9,10-dihydro-4H-3,10a-diaza-benzo[f]azulene-1-carboxylic acid amide] cannot be ordered by Ki: < 1 µM for the first, < 0.3 µM for the second.

`CCCc1nc2n(c1-c1ccccc1)CCc1ccccc1C2OC1CCN(C)CC1` (stereo not drawn) [Example 246, 4-(1-methyl-piperidin-4-yloxy)-1-phenyl-2-propyl-9,10-dihydro-4H-3,10a-diaza-benzo[f]azulene] and `CN1CCC(OC2c3ccccc3CCn3cc(C=CCOCc4ccccc4)nc32)CC1` (stereo not drawn) [Example 124, 2-(3-benzyloxypropenyl)-4-(1-methylpiperidin-4-yloxy)-9,10-dihydro-4H-3,10a-diaza-benzo[f]azulene oxalate] cannot be ordered by Ki: < 0.3 µM for the first, < 0.3 µM for the second.
